Laboratory results: publication PMC10331583, “Control of fibrosis with enhanced safety via asymmetric inhibition of prolyl‐tRNA synthetase 1” (EMBO Molecular Medicine, 2023)

How the values were obtained:
in vitro = conditions: human, Cytotoxicity
[1] = test system: WI‐26 VA4 cells stably expressing PARS1 FA/EA/RL mutant; conditions: human, 72 h
LX2 cells = experiment: Determination of collagen level using 3D culture (hydroxyproline); format: cell-based; conditions: Homo sapiens, LX-2, read-out: IC50 for collagen level
Protocol: To screen HF derivatives, LX2 cells were resuspended with growth medium containing 20% Matrigel (BD Bioscience, 354234) and then seeded at 1 × 10^4 cells/well on a Lipidure‐coated U bottom 96‐well plate (NOF, LCU96). After 48 h, the cells were treated with TGF‐β1 (Sigma‐Aldrich, T7039) for 24 h to mimic fibrotic conditions and then additionally incubated in the presence of various concentrations of test compounds for 48 h. To determine the level of collagen, hydroxyproline levels were measured following the manufacturer's instructions (BioVision, K555‐100). Briefly, after the cells were incubated with HCl for 3 h at 120°C, the soluble supernatant was prepared using activated charcoal (Sigma‐Aldrich, 161551). The samples were dried for 3 h at 60°C and then, incubated with chloramine T mixture for 10 min and Ehrlich's reagent for 90 min at 60°C. The level of hydroxyproline was determined by measuring the absorbance at 540 nm.

SMILES	activity at 72 h, 0.1 µM (in vitro; % of control (single replicates, Experiment #1-#4))	activity at 72 h, 0.001 µM (in vitro; % of control, average)	activity at 72 h, 0.003 µM (in vitro; % of control, average)	activity at 72 h, 0.03 µM (in vitro; % of control, average)	activity at 72 h, 0.1 µM (in vitro; % of control, average)	activity at 72 h, 1 µM (in vitro; % of control, average)	Cytotoxicity HillSlope (best-fit value) [1]	Cytotoxicity LogIC50 (best-fit value) [1]	IC50 (LX2 cells)
O=C(CC1NCCCC1O)Cn1cnc2cc(Br)c(Cl)cc2c1=O (stereo not drawn) [HF, Halofuginone, reference compound]	34.2%	101%	107%	73.6%	42.5%	19.4%	-0.8245	1.805	–
O[C@H]1CCCN[C@@H]1CCCn1cnc2c(Cl)c(Cl)ccc21 [DWN12088]	–	–	–	–	–	–	–	–	43.1 nM
